Results from US11266715B2, “C3A receptor agonists for use against ischemic brain injury, stroke, traumatic brain injury, spinal cord injury and neurodegenerative disorders” (priority 2016, dated 2022).

Assays:
microglia and astrocytes = conditions: in vitro; cited from earlier work
synapsin I+ puncta = assay: Synapsin I immunostaining of cortex 21 days after stroke; type: in vivo, mouse; conditions: for larger size of synapsin I+ puncta vs PBS-treated mice: ipsilesional motor cortex
Procedure: For immunofluorescent evaluation, sections were deparaffinized, heated three times for 5 min in a microwave oven in 0.01 M citric buffer (pH 6.0), and blocked in PBS containing 0.05% Tween-20 (Sigma) and 1% in Bovine serum albumin (BSA, Sigma) for GAP-43 and synapsin I staining, 3% normal goat serum for VGLUT1 staining or 4% normal donkey serum for GAP-43 double stainings. Goat anti-synapsin la/b antibody (1:150; Santa Cruz, sc-7379) was followed by biotin-conjugated donkey anti-goat immunoglobulin (Ig) secondary antibody (1:200; Jackson Research Lab, 705-065-147) and Cy3-conjugated streptavidin (1:100; Sigma). Guinea pig anti-VGLUT1 (1:500; Millipore, AB5905) was followed by Alexa Fluor 488 goat anti-guinea pig Ig (1:500; Molecular Probes, A11073). For single staining, mouse anti-GAP-43 antibody (1:1000; Millipore, MAB347), was followed by biotinylated rabbit anti-mouse Ig secondary antibody (1:200; Dako, E0354) and Cy3-conjugated streptavidin (1:100; Sigma). […]
Highest signal intensity single plane images of immunostained sections were obtained by laser scanning confocal microscope (LSM TCS SP2, Leica Microsystems, ×63/NA 1.3 objective for synapsin I and GAP-43; and LSM 700, Carl Zeiss for VGLUT1 ×40/NA 1.3) at 1024×1024 pixels resolution. […] Three standard sections per animal in 160 μm intervals were analysed. […]
Single-stained images were analysed using MetaMorph® software (Molecular Devices, ver. 2.8.5) to obtain number, average size and intensity of positive punctuate structures per image. […] An experimenter blinded to experimental group performed all image acquisitions and quantifications.

Substance: C3a: Purified human C3a peptide (Complement Technologies), C3a receptor agonist, amino acid sequence SEQ ID NO: 1
- NGF expression (microglia and astrocytes): induces upregulation of neural growth factor (NGF)
- increase in density of synapsin I+ puncta (synapsin I+ puncta; contralesional somatosensory cortex, P=0.030): 20%
- larger size of synapsin I+ puncta vs PBS-treated mice (synapsin I+ puncta; deep layers, P<0.0001): 8.1%
- larger size of synapsin I+ puncta vs PBS-treated mice (synapsin I+ puncta; superficial layers, P=0.0004): 9.7%
